Laboratory results from ChEMBL document CHEMBL5696441 (Nat Chem Biol, 2011).

What was measured:
[1] = biological target: Epidermal growth factor receptor (Homo sapiens) (UniProt P00533); assay: Inhibition of EGFR (unknown origin) assessed as remaining activity at 1 uM by Kinome scan method relative to control
[2] = biological target: G protein-coupled receptor kinase 4 (Homo sapiens) (UniProt P32298); assay: Inhibition of GRK4 (unknown origin) assessed as remaining activity at 1 uM by Kinome scan method relative to control
[3] = biological target: Insulin-like growth factor 1 receptor (Homo sapiens) (UniProt P08069); assay: Inhibition of IGF1R (unknown origin) assessed as remaining activity at 1 uM by Kinome scan method relative to control
[4] = tested on: Mast/stem cell growth factor receptor Kit (Homo sapiens), P10721 [V559D,V654A]; assay: Inhibition of KIT V559D/V654A mutant (unknown origin) assessed as remaining activity at 1 uM by Kinome scan method relative to control
Mast/stem cell growth factor receptor Kit (Homo sapiens), P10721 [V559D,V654A], sequence (P10721 whole entry V559D/V654A): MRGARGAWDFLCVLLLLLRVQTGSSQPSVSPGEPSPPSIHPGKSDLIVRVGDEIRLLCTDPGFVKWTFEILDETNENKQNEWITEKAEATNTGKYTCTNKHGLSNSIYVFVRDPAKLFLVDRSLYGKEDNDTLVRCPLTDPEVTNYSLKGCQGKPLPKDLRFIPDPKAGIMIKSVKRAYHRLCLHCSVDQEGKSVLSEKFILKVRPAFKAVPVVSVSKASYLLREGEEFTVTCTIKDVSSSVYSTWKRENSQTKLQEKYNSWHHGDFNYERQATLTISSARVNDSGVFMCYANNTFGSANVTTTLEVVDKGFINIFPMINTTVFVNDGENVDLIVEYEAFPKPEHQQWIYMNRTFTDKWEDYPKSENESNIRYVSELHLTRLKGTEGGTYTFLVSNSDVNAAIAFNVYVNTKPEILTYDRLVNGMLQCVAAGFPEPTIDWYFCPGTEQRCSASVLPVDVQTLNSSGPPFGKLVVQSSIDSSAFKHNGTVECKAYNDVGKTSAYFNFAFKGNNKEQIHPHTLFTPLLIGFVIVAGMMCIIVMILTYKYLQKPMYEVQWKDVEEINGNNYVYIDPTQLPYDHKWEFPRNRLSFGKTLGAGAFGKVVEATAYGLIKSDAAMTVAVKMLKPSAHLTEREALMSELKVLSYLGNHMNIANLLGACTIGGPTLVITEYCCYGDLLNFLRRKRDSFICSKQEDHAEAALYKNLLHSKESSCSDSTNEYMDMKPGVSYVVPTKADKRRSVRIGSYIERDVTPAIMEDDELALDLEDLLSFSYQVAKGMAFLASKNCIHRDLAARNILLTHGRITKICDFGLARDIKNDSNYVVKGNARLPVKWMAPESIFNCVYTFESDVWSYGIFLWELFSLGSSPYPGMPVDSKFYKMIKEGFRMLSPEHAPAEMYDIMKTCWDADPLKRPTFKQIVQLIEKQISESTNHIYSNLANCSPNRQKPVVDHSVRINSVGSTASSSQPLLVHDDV

[5] = biological target: STE20-like serine/threonine-protein kinase (Homo sapiens) (UniProt Q9H2G2); assay: Inhibition of SLK (unknown origin) assessed as remaining activity at 1 uM by Kinome scan method relative to control
[6] = biological target: T1, Serine/threonine-protein kinase BRSK1 (Homo sapiens) (UniProt Q8TDC3); assay: Inhibition of human BRSK1 assessed as residual activity at 1 uM using RBER-CHKtide as substrate in presence of 33P-ATP by ProQinase assay relative to control
T1 sequence (whole entry): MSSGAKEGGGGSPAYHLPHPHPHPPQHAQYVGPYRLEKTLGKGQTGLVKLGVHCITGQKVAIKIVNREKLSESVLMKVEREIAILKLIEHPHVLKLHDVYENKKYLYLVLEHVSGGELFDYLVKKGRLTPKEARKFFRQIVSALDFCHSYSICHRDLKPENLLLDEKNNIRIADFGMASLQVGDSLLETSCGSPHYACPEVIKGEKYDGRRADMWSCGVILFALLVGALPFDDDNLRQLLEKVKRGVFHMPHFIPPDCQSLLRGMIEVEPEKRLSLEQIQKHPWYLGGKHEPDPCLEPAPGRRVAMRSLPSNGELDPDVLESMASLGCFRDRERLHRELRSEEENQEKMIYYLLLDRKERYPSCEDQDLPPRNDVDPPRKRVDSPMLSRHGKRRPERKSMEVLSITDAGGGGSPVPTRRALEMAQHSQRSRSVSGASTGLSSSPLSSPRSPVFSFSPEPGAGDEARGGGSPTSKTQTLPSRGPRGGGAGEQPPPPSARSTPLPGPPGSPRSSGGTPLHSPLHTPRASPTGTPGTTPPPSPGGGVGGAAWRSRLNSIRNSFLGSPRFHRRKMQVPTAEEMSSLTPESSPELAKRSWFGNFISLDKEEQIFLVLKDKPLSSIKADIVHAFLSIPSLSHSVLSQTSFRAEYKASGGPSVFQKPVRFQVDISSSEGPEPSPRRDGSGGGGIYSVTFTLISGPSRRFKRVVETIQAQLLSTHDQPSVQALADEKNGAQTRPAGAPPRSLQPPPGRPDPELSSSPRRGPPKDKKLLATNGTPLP

[7] = biological target: Calcium/calmodulin-dependent protein kinase kinase 1 (Homo sapiens) (UniProt Q8N5S9); assay: Inhibition of human CAMKK1 assessed as residual activity at 1 uM using RB-CTF as substrate in presence of 33P-ATP by ProQinase assay relative to control
[8] = biological target: CDK8/Cyclin C (Homo sapiens) (UniProt P49336+P24863); assay: Inhibition of human CDK8/CyclinC assessed as residual activity at 1 uM using RBER-CHKtide as substrate in presence of 33P-ATP by ProQinase assay relative to control; type: protein-complex assay
[9] = biological target: Epidermal growth factor receptor (Homo sapiens) (UniProt P00533); assay: Inhibition of human EGFR assessed as residual activity at 1 uM using PolyEY as substrate in presence of 33P-ATP by ProQinase assay relative to control
[10] = tested on: Hepatocyte growth factor receptor (Homo sapiens), P08581 [Y1230C]; assay: Inhibition of human MET Y1230C mutant assessed as residual activity at 1 uM using poly(Ala,Glu,Lys,Tyr)6:2:5:1 as substrate in presence of 33P-ATP by ProQinase assay relative to control
[11] = biological target: T2, cGMP-dependent protein kinase 2 (Homo sapiens) (UniProt Q13237); assay: Inhibition of human PRKG2 assessed as residual activity at 1 uM using RBER-GSK3(14-27) as substrate in presence of 33P-ATP by ProQinase assay relative to control
T2 sequence (whole entry): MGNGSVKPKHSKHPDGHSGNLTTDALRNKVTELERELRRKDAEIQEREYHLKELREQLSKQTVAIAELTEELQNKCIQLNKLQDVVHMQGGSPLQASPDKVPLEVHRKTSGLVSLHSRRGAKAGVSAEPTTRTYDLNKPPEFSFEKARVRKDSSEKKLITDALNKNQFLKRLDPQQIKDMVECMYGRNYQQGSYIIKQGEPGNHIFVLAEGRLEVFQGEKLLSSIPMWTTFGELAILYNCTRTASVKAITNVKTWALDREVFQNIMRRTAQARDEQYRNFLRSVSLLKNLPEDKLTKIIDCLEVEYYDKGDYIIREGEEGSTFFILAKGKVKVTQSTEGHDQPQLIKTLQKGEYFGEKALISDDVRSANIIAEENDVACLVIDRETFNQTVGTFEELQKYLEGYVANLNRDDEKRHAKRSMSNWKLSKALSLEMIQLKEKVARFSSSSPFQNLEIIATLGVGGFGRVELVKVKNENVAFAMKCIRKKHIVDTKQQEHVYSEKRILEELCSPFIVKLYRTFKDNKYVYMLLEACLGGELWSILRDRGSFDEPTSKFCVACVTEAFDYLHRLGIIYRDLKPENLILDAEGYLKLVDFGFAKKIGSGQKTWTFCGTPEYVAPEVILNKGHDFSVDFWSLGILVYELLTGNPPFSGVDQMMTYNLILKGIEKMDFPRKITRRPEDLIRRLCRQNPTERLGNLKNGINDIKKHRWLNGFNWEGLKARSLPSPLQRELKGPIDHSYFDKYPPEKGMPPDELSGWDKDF

[12] = biological target: Ribosomal protein S6 kinase alpha-1 (Homo sapiens) (UniProt Q15418); assay: Inhibition of human RPS6KA1 assessed as residual activity at 1 uM using RBER-CHKtide as substrate in presence of 33P-ATP by ProQinase assay relative to control
Ribosomal protein S6 kinase alpha-1 (Homo sapiens), sequence (Q15418 whole entry): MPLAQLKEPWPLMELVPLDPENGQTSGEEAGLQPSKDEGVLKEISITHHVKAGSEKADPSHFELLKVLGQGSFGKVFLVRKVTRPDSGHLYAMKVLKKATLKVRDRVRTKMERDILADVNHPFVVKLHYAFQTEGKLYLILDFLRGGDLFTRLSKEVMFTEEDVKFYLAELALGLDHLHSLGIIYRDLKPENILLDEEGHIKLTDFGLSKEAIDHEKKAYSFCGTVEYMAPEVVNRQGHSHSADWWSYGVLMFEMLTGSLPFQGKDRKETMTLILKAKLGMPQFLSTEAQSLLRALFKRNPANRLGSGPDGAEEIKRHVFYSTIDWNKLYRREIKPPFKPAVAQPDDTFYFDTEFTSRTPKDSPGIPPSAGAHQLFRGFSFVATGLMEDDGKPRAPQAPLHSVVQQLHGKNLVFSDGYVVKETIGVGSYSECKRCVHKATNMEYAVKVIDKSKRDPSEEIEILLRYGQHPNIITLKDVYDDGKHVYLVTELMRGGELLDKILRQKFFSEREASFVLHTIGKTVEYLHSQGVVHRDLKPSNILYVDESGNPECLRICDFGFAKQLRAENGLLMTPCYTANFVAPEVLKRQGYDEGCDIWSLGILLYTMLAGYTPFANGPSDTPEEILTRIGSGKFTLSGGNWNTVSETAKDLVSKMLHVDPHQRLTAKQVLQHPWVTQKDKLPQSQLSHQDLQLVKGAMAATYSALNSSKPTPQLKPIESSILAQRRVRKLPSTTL

[13] = biological target: Serine/threonine-protein kinase Sgk3 (Homo sapiens) (UniProt Q96BR1); assay: Inhibition of human SGK3 assessed as residual activity at 1 uM using RBER-GSK3(14-27) as substrate in presence of 33P-ATP by ProQinase assay relative to control
Serine/threonine-protein kinase Sgk3 (Homo sapiens), sequence (Q96BR1 whole entry): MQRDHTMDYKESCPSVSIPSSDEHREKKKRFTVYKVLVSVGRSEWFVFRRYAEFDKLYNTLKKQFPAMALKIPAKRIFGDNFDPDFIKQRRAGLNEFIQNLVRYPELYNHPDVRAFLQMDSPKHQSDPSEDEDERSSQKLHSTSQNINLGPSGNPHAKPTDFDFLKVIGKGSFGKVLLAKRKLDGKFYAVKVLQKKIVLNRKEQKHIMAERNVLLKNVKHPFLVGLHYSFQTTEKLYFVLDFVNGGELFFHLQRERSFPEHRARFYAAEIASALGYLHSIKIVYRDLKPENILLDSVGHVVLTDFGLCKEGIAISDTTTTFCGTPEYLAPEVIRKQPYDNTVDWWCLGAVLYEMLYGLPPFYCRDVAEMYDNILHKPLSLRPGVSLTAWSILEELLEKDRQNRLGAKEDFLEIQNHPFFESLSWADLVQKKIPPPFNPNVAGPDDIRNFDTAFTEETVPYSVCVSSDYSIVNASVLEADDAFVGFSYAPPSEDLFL

[14] = biological target: SRSF protein kinase 1 (Homo sapiens) (UniProt Q96SB4); assay: Inhibition of human SRPK1 assessed as residual activity at 1 uM using MBP as substrate in presence of 33P-ATP by ProQinase assay relative to control
[15] = biological target: Vascular endothelial growth factor receptor 2 (Homo sapiens) (UniProt P35968); assay: Inhibition of human VEGFR2 assessed as residual activity at 1 uM using polyEY as substrate in presence of 33P-ATP by ProQinase assay relative to control
Vascular endothelial growth factor receptor 2 (Homo sapiens), sequence (P35968 whole entry): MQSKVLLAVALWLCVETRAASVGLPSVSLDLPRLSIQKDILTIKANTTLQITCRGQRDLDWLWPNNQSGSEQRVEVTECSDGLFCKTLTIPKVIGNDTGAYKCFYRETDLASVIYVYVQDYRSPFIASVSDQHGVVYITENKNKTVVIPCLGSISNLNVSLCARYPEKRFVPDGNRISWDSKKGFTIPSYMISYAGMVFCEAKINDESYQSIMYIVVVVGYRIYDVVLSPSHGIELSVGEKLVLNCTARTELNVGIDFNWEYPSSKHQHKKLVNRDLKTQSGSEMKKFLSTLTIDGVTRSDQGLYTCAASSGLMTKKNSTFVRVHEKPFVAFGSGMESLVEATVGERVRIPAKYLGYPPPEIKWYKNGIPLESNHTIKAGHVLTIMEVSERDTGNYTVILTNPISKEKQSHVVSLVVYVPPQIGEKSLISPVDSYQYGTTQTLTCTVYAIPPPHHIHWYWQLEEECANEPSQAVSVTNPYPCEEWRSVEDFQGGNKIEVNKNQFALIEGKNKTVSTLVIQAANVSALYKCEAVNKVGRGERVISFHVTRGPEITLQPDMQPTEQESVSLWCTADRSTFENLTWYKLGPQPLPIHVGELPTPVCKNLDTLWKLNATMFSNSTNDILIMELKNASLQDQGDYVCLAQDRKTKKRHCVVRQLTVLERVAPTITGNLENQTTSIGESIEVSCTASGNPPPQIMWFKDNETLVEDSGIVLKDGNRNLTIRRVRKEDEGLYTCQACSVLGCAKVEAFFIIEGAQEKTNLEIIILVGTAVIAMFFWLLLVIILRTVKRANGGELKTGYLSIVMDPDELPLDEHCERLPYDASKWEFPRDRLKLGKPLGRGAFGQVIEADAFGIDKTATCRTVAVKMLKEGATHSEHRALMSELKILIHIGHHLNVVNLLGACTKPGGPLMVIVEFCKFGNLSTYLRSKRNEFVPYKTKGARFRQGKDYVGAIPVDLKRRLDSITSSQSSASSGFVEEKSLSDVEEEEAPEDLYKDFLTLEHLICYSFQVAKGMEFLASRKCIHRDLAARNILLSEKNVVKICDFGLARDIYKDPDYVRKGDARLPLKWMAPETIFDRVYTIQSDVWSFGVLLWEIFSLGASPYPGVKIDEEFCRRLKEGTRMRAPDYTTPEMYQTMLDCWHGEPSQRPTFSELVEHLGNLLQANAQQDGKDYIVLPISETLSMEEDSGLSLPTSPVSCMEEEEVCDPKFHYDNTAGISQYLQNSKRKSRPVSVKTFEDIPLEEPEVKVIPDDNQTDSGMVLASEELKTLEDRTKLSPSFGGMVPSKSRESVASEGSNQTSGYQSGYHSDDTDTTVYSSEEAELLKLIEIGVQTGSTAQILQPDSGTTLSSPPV

Epidermal growth factor receptor (Homo sapiens), sequence (P00533 whole entry): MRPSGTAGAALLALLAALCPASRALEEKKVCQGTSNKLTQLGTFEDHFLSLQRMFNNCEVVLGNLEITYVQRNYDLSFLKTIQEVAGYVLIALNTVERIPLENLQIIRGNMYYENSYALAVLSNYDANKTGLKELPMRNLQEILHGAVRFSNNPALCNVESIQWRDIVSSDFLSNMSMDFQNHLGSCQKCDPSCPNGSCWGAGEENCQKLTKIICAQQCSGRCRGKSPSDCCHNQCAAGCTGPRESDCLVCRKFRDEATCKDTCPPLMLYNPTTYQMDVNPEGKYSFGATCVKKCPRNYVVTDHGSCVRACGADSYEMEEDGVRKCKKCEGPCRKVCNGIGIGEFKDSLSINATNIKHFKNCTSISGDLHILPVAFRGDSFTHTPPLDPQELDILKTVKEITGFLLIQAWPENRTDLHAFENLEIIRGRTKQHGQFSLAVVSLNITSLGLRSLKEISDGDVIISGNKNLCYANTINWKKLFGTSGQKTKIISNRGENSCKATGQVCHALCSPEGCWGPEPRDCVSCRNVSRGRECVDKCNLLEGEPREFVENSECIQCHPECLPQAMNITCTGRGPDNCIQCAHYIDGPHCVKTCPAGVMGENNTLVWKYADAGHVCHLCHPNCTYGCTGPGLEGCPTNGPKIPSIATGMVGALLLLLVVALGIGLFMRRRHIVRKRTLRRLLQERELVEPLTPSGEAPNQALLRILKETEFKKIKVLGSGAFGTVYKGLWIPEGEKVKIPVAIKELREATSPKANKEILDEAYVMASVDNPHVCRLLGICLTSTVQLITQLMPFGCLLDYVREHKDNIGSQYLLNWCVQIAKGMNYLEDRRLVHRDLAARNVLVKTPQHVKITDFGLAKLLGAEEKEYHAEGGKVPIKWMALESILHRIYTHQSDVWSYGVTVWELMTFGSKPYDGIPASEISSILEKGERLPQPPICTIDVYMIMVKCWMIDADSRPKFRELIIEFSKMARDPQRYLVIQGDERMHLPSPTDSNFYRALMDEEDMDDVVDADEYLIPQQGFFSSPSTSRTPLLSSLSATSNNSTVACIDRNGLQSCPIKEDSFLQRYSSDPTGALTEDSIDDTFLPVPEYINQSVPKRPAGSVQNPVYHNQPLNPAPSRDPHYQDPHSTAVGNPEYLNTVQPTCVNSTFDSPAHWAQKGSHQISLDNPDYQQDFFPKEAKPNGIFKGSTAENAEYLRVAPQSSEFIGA

SMILES: O=C1c2ccc(Nc3ccc(F)cc3F)cc2CCc2ccc(OC[C@H](O)CO)cc21 [Skepinone-L]
- Activity [1]: 98%
- Activity [2]: 100%
- Activity [3]: 91%
- Activity [4]: 100%
- Activity [5]: 100%
- Activity [6]: 94%
- Activity [7]: 83%
- Activity [8]: 105%
- Activity [9]: 94%
- Activity [10]: 97%
- Activity [11]: 94%
- Activity [12]: 89%
- Activity [13]: 102%
- Activity [14]: 100%
- Activity [15]: 91%
